Among the data in patent US20260042764A1, “COMPOSITIONS AND METHODS FOR INHIBITION OF KRAS” (TheRas, Inc., priority 2022, published 2026) are IC50 values, retold here.

One may read the IC50 as the concentration at which inhibition is half-maximal. Read a low IC50 as greater potency in that assay.

The target of assay [1] is T1, Avi-KRAS G12V (2-169) GTP/RAF1 RBD-3xFLAG (51-131) (Homo sapiens, UniProt P01116, G12V).
T1 construct: Avi-KRAS G12V (2-169)
Description: Raf1-KRAS G12V-GTP disruption HTRF assay (Biological Example 3). It is filed as binding. Particulars: KRAS G12V, GTP-loaded. Summed up: (§1)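 HTRF PPI read-out (ex 320 nm, em 615 nm) after 1 h RT incubation with shaking; data as % activity vs DMSO (100%), IC50 from curve fit. Complex 50 nM, RBD reagent 75 nM; compound 30-0.005 μM, 3-fold.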
(Time-resolved FRET reads energy transfer from a long-lived donor to a nearby acceptor.)

In assay [2] the target is T2, Avi-KRAS WT (2-169) GTP/RAF1 RBD-3xFLAG (51-131) (Homo sapiens, UniProt P01116).
T2 construct: Avi-KRAS WT (2-169)
T2 sequence (P01116 2-169 isoform P01116-2): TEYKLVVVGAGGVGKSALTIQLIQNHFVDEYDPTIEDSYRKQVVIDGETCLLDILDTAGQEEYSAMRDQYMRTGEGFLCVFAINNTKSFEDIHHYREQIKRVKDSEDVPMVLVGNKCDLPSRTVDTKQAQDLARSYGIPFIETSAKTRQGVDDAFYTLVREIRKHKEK
Description: Raf1-KRAS WT-GTP disruption HTRF assay (Biological Example 3). The format is binding. Particulars: KRAS WT, GTP-loaded. The method in brief: as §1

In assay [3] the target is T3, Avi-KRAS G12D (2-169) GTP/RAF1 RBD-3xFLAG (51-131) (Homo sapiens, UniProt P01116, G12D).
T3 construct: Avi-KRAS G12D (2-169)
T3 sequence (P01116 2-169 isoform P01116-2 G12D): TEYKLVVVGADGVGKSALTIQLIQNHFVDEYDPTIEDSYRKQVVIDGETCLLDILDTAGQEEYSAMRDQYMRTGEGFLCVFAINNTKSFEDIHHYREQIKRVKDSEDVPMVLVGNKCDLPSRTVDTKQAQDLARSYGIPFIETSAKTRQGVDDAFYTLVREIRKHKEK
Description: Raf1-KRAS G12D-GTP disruption HTRF assay (Biological Example 3). The settings on record: KRAS G12D, GTP-loaded. The format is binding. Summed up: as §1

A further assay has as its system SW620 cells (KRAS G12V). As to the kind of experiment: Cell-based pERK HTRF assay in SW620 cell (Biological Example 4). The settings on record: Homo sapiens, SW-620, SW620 (KRAS G12V) cells. The method in brief:
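Read-out: HTRF pERK signal (excitation 320 nm, emission 615 nm) from lysates of SW620 cells after 4 h compound exposure. Dose range was 9 points, half-log steps from 1 μM, in 0.25% DMSO; antibody incubation ran 4–24 h at room temperature.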

Assay [4] concerns the target T4, Avi-KRAS G12C (2-169) GTP/RAF1 RBD-3xFLAG (51-131) (Homo sapiens, UniProt P01116, G12C).
T4 construct: Avi-KRAS G12C (2-169)
Description: Raf1-KRAS G12C-GTP disruption HTRF assay (Biological Example 3). The format is binding. The settings on record: KRAS G12C, GTP-loaded. Summed up:
as §1

Another assay concerns GP2d cells (KRAS G12D). Description: Cell-based pERK HTRF assay in GP2d cell (Biological Example 2). The settings on record: GP2d, GP2d (KRAS G12D) cells. Summed up: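 Treatment with test compounds lasted one hour in DMEM containing 10% FBS, with DMSO held at 0.25%. Dilution series: 9 points, half-log spacing, highest 1 μM or 100 nM. Lysates were incubated 4–24 h at room temperature with antibody mix, then HTRF was read at 320 nm excitation.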

T1 sequence (P01116 2-169 isoform P01116-2 G12V): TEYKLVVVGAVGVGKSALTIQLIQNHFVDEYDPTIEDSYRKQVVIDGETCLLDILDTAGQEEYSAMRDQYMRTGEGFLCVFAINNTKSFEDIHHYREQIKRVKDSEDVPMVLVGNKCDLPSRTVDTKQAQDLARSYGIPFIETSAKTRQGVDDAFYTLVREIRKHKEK
T4 sequence (P01116 2-169 isoform P01116-2 G12C): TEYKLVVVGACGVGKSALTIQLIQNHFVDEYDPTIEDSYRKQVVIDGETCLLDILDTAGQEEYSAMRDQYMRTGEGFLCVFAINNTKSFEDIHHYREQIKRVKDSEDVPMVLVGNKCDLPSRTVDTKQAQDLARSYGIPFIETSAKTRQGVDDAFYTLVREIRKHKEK

On to `CCN(c1nc(OC[C@@]23CCCN2C[C@H](F)C3)nc2c(F)c(-c3ccc(F)c4sc(N)c(C#N)c34)c(C(F)(F)F)cc12)[C@H]1CCN(C(=O)N2CC3C(C2)C3(C)C)C1` (stereo partly drawn) [Compound 817], for which the half-inhibitory concentration (IC50) was 100 to 1000 nM in assay [1]; 1000 to 10000 nM in assay [2]; 100 to 1000 nM in assay [3]; less than 100 nM in the assay with SW620 cells (KRAS G12V); 100 to 1000 nM in assay [4]; less than 100 nM with GP2d cells (KRAS G12D).
Take `CCN(c1nc(OC[C@@]23CCCN2C[C@H](F)C3)nc2c(F)c(-c3ccc(F)c4sc(N)c(C#N)c34)c(C(F)(F)F)cc12)[C@H]1CCN(C(=O)O[C@@H]2CCOC2)[C@@H]1C` (atropisomer, axis not shown) [Compound 824]: the IC50 in assay [1] is 100 to 1000 nM; in assay [2], 100 to 1000 nM; in assay [3], 100 to 1000 nM; in the assay with SW620 cells (KRAS G12V), less than 100 nM; in assay [4] it was 100 to 1000 nM; in the assay on GP2d cells (KRAS G12D), less than 100 nM.
Regarding `CCN(c1nc(OC[C@@]23CCCN2C[C@H](F)C3)nc2c(F)c(-c3ccc(F)c4sc(N)c(C#N)c34)c(C(F)(F)F)cc12)[C@H]1CCN(C(=O)c2nccs2)C1` (atropisomer, axis not shown) [Compound 927], the concentration for half-maximal inhibition (IC50) is 100 to 1000 nM in assay [1]; 100 to 1000 nM in assay [2]; 100 to 1000 nM in assay [3]; less than 100 nM with SW620 cells (KRAS G12V); 100 to 1000 nM in assay [4]; less than 100 nM in the assay on GP2d cells (KRAS G12D).
As for `N#Cc1c(N)sc2c(F)ccc(-c3c(C(F)(F)F)cc4c(N5CCC(c6cccnc6)C5)nc(OC[C@@]56CCCN5C[C@H](F)C6)nc4c3F)c12` (stereo partly drawn) [Compound 943], the IC50 in assay [1] was more than 10000 nM; in assay [2], more than 10000 nM; in assay [3], more than 10000 nM; in the assay with SW620 cells (KRAS G12V), less than 100 nM; in assay [4], more than 10000 nM; in the assay with GP2d cells (KRAS G12D) it was less than 100 nM.
Take `CCN(c1nc(OC[C@@]23CCCN2C[C@H](F)C3)nc2c(F)c(-c3ccc(F)c4sc(N)c(C#N)c34)c(C(F)(F)F)cc12)[C@H]1C[C@H](COC)N(C(=O)N2CC(OC)C2)C1` (atropisomer, axis not shown) [Compound 839]: the IC50 was 100 to 1000 nM in assay [1]; 100 to 1000 nM in assay [2]; 100 to 1000 nM in assay [3]; less than 100 nM in the assay with SW620 cells (KRAS G12V); 100 to 1000 nM in assay [4]; less than 100 nM with GP2d cells (KRAS G12D).
For `CCN(c1nc(OC[C@@]23CCCN2C[C@H](F)C3)nc2c(F)c(-c3ccc(F)c4sc(N)c(C#N)c34)c(C(F)(F)F)cc12)[C@H]1C[C@@H]2CCCC(=O)N2C1` (atropisomer, axis not shown) [Compound 663], the IC50 in assay [1] is 1000 to 10000 nM; in assay [2], 1000 to 10000 nM; in assay [3] it was 100 to 1000 nM; in the assay with SW620 cells (KRAS G12V), less than 100 nM; in assay [4], 1000 to 10000 nM; in the assay with GP2d cells (KRAS G12D), less than 100 nM.
`CCN(c1nc(OC[C@@]23CCCN2C[C@H](F)C3)nc2c(F)c(-c3ccc(F)c4sc(N)c(C#N)c34)c(C(F)(F)F)cc12)[C@H]1C[C@@H]2COCC(=O)N2C1` (atropisomer, axis not shown) [Compound 878]: the IC50 in assay [1] is 100 to 1000 nM; in assay [2] it was 100 to 1000 nM; in assay [3] it was 100 to 1000 nM; with SW620 cells (KRAS G12V), less than 100 nM; in assay [4], 100 to 1000 nM; in the assay with GP2d cells (KRAS G12D) it was less than 100 nM.
As for `CCN(c1nc(OC[C@@]23CCCN2C[C@H](F)C3)nc2c(F)c(-c3ccc(F)c4sc(N)c(C#N)c34)c(C(F)(F)F)cc12)[C@H]1C[C@H](COC)N(C(=O)OC2COC2)C1` (atropisomer, axis not shown) [Compound 837], the IC50 in assay [1] was 100 to 1000 nM; in assay [2], 100 to 1000 nM; in assay [3], 100 to 1000 nM; in the assay with SW620 cells (KRAS G12V), less than 100 nM; in assay [4], 100 to 1000 nM; in the assay with GP2d cells (KRAS G12D) it was less than 100 nM.
For `CCN(c1nc(OC[C@@]23CCCN2C[C@H](F)C3)nc2c(F)c(-c3ccc(F)c4sc(N)c(C#N)c34)c(C(F)(F)F)cc12)[C@H]1CCN(C(=O)O[C@@H]2CO[C@H]3OCC[C@H]32)C1` (atropisomer, axis not shown) [Compound 834], the concentration for half-maximal inhibition (IC50) was not above 100 nM in assay [1]; 100 to 1000 nM in assay [2]; not above 100 nM in assay [3]; less than 100 nM with SW620 cells (KRAS G12V); not above 100 nM in assay [4]; less than 100 nM in the assay with GP2d cells (KRAS G12D).
On to `CCN(c1nc(OCC23CCCN2CC(F)C3)nc2c(F)c(-c3ccc(F)c4sc(N)c(C#N)c34)c(C(F)(F)F)cc12)C1CCN(C(=O)c2ncns2)C1` (stereo not drawn) [Compound 949], for which the 50% inhibitory concentration (IC50) in assay [1] was 100 to 1000 nM; in assay [2], 100 to 1000 nM; in assay [3] it was 100 to 1000 nM; in the assay on SW620 cells (KRAS G12V) it was less than 100 nM; in assay [4], 100 to 1000 nM; with GP2d cells (KRAS G12D) it was less than 100 nM.
With `CCN(c1nc(OC[C@@]23CCCN2C[C@H](F)C3)nc2c(F)c(-c3ccc(F)c4sc(N)c(C#N)c34)c(C(F)(F)F)cc12)[C@H]1C[C@H](COC)N(C(=O)C2CC2(F)F)C1` (stereo partly drawn) [Compound 861], the IC50 in assay [1] was 100 to 1000 nM; in assay [2] it was 100 to 1000 nM; in assay [3], 100 to 1000 nM; with SW620 cells (KRAS G12V), less than 100 nM; in assay [4] it was 100 to 1000 nM; in the assay with GP2d cells (KRAS G12D), less than 100 nM.
With `CCN(c1nc(OC[C@@]23CCCN2C[C@H](F)C3)nc2c(F)c(-c3ccc(F)c4sc(N)c(C#N)c34)c(C(F)(F)F)cc12)[C@H]1C[C@H](COC)N(C(=O)[C@H]2C[C@H]2F)C1` (atropisomer, axis not shown) [Compound 847], the IC50 is 100 to 1000 nM in assay [1]; 100 to 1000 nM in assay [2]; 100 to 1000 nM in assay [3]; less than 100 nM with SW620 cells (KRAS G12V); 100 to 1000 nM in assay [4]; less than 100 nM in the assay with GP2d cells (KRAS G12D).
As for `CCN(c1nc(OC[C@@]23CCCN2C[C@H](F)C3)nc2c(F)c(-c3ccc(F)c4sc(N)c(C#N)c34)c(C(F)(F)F)cc12)[C@@H]1CCN2C(=O)OC[C@H]12` (atropisomer, axis not shown) [Compound 941], the IC50 in assay [1] is more than 10000 nM; in assay [2] it was 1000 to 10000 nM; in assay [3], 1000 to 10000 nM; in the assay with SW620 cells (KRAS G12V), less than 100 nM; in assay [4] it was 1000 to 10000 nM; in the assay on GP2d cells (KRAS G12D), less than 100 nM.
As for `CCN(c1nc(OC[C@@]23CCCN2C[C@H](F)C3)nc2c(F)c(-c3ccc(F)c4sc(N)c(C#N)c34)c(C(F)(F)F)cc12)[C@H]1CC(=O)N2CCC[C@H]12` (atropisomer, axis not shown) [Compound 880], the half-maximal inhibitory concentration (IC50) in assay [1] is not above 100 nM; in assay [2] it was 100 to 1000 nM; in assay [3], 100 to 1000 nM; in the assay with SW620 cells (KRAS G12V) it was less than 100 nM; in assay [4], not above 100 nM; in the assay on GP2d cells (KRAS G12D), less than 100 nM.
As to `CCN(c1nc(OC[C@@]23CCCN2C[C@H](F)C3)nc2c(F)c(-c3ccc(F)c4sc(N)c(C#N)c34)c(C(F)(F)F)cc12)[C@H]1C[C@H]2COCC(=O)N2C1` (atropisomer, axis not shown) [Compound 882], the 50% inhibitory concentration (IC50) is not above 100 nM in assay [1]; 100 to 1000 nM in assay [2]; not above 100 nM in assay [3]; less than 100 nM with SW620 cells (KRAS G12V); not above 100 nM in assay [4]; less than 100 nM with GP2d cells (KRAS G12D).
For the compound `CCN(c1nc(OC[C@@]23CCCN2C[C@H](F)C3)nc2c(F)c(-c3ccc(F)c4sc(N)c(C#N)c34)c(C(F)(F)F)cc12)[C@H]1CCN(C(=O)c2cnc(Cl)s2)C1` (atropisomer, axis not shown) [Compound 905], the IC50 in assay [1] was 100 to 1000 nM; in assay [2], 1000 to 10000 nM; in assay [3], 100 to 1000 nM; in the assay on SW620 cells (KRAS G12V), less than 100 nM; in assay [4] it was 100 to 1000 nM; with GP2d cells (KRAS G12D), less than 100 nM.
